According to patent US7179597B2, “Genetic diagnosis for QT prolongation related adverse drug reactions” (Georgetown University, priority 2000, dated 2007):
Entries after “also recorded” stand apart in the source; their conditions may differ. Like-named read-outs stand apart in the source and are kept apart here.

Experiments:
[1] = cited from earlier work
[2] = cited from earlier work; remark: listed apart in the source
CYP3A = settings: Table 3; cited from earlier work
CYP2D6 = CYP2D6 (Homo sapiens, UniProt P10635); settings: Table 3; cited from earlier work
CYP2C19 = CYP2C19 (Homo sapiens, UniProt P33261); settings: Table 3; cited from earlier work
CYP2C9 = CYP2C9 (Homo sapiens, UniProt P11712); settings: Table 3; cited from earlier work
healthy volunteers = assay: ECG QTc assessment after ibutilide infusion in healthy volunteers; type: in vivo, human
Procedure: ECG analysis is one method of assessing arrhythmias, such as prolonged QT intervals. Ibutilide or any other pharmaceutical agent to be studied, can be assessed using an ECG. […] All ECGs were 12 lead and were recorded on a computer disc and on paper at a speed of 50 mm/sec, with the subject in a stationary, resting, supine position.

[3] = Table 2, FDA / medical literature

CYP2C19, sequence (P33261 whole entry): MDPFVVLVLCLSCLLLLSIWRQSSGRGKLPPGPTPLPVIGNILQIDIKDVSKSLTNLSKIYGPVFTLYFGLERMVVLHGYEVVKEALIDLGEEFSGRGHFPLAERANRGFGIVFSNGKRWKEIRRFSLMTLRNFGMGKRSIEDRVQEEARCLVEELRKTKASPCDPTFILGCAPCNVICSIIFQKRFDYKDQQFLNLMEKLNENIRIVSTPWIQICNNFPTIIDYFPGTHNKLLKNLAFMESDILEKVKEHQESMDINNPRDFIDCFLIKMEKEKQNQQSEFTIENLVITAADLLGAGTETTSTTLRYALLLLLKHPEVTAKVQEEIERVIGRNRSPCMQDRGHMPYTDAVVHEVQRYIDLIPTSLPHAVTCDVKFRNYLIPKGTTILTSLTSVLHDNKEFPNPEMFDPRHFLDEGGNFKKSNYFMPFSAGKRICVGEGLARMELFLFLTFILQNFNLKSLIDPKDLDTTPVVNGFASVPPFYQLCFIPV
CYP2D6, sequence (P10635 whole entry): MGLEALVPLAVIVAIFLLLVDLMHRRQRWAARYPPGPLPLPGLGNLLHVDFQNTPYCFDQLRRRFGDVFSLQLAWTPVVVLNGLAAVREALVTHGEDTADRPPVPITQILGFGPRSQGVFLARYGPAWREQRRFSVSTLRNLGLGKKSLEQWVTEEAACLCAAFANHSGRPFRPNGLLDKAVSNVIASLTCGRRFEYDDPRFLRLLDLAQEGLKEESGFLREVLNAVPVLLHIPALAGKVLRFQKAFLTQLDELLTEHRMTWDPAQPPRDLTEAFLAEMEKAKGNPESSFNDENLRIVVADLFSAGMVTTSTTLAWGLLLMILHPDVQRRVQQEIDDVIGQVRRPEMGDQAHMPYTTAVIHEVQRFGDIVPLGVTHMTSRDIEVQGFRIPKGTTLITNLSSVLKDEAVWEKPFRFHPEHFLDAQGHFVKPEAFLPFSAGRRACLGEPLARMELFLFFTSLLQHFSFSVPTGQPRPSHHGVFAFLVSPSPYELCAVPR
CYP2C9, sequence (P11712 whole entry, the tested form may be a part): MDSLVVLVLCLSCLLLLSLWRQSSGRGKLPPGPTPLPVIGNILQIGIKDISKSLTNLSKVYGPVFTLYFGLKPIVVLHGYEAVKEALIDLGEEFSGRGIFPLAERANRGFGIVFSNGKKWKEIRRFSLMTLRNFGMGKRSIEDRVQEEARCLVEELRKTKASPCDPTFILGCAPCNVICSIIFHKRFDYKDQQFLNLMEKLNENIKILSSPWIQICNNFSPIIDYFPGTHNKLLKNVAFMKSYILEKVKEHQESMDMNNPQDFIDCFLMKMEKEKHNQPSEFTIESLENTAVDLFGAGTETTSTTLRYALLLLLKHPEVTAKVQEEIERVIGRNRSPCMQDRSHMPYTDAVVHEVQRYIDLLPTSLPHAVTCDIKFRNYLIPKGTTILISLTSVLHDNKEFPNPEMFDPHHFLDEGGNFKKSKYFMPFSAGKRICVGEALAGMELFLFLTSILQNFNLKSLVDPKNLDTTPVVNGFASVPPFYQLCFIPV

| SMILES | TdP [1, 3] | QT ([2]; Table 2, drug labeling) | further results |
| --- | --- | --- | --- |
| CCCCc1oc2ccccc2c1C(=O)c1cc(I)c(OCCN(CC)CC)c(I)c1 [Amiodarone] | Yes | – | TdP ([1]; Table 3): Yes |
| Clc1ccc2c(c1)C(N1CCNCC1)=Nc1ccccc1O2 [Amoxapine] | – | Yes | – |
| COc1ccc(CCN2CCC(Nc3nc4ccccc4n3Cc3ccc(F)cc3)CC2)cc1 [Astemizole] | Yes | Yes | Interactions: cytochrome P-450 isoform 3A, substrate or inhibitor (CYP3A): Substrate; QT ([2]; Table 3): Yes; TdP ([1]; Table 3): Yes |
| CN1CCCC(n2nc(Cc3ccc(Cl)cc3)c3ccccc3c2=O)CC1 (centres unmarked) [Azelastine] | – | Yes | – |
| CC(C)COCC(CN(Cc1ccccc1)c1ccccc1)N1CCCC1 (centres unmarked) [Bepridil] | Yes | Yes | – |
| CN(C)CCCN1c2ccccc2Sc2ccc(Cl)cc21 [Chlorpromazine] | Yes | Yes | – |
| COc1cc(N)c(Cl)cc1C(=O)NC1CCN(CCCOc2ccc(F)cc2)CC1OC (centres unmarked) [Cisapride] | Yes | Yes | Interactions: cytochrome P-450 isoform 3A, substrate or inhibitor (CYP3A): Substrate; QT ([2]; Table 3): Yes; TdP ([1]; Table 3): Yes |
| CC[C@H]1OC(=O)[C@H](C)[C@@H](O[C@H]2C[C@@](C)(OC)[C@@H](O)[C@H](C)O2)[C@H](C)[C@@H](O[C@@H]2O[C@H](C)C[C@H](N(C)C)[C@H]2O)[C@](C)(OC)C[C@@H](C)C(=O)[C@H](C)[C@@H](O)[C@]1(C)O [Clarithromycin] | – | Yes | QT ([2]; Table 3): Yes |
| CN1CCC[C@@H]1CCO[C@](C)(c1ccccc1)c1ccc(Cl)cc1 [Clemastine] | Maybe— | – | TdP ([1]; Table 3): Maybe— |
| CNCCCN1c2ccccc2CCc2ccccc21 [Desipramine] | – | Yes | Interactions: cytochrome P-450 isoform 2D6, substrate or inhibitor (CYP2D6): Substrate; QT ([2]; Table 3): Yes |
| CC(C)N(CCC(C(N)=O)(c1ccccc1)c1ccccn1)C(C)C (centres unmarked) [Disopyramide] | Yes | Yes | – |
| CN(C)CCC=C1c2ccccc2COc2ccccc21 [Doxepin] | Yes | Yes | – |
| CC[C@H]1OC(=O)[C@H](C)[C@@H](O[C@H]2C[C@@](C)(OC)[C@@H](O)[C@H](C)O2)[C@H](C)[C@@H](O[C@@H]2O[C@H](C)C[C@H](N(C)C)[C@H]2O)[C@](C)(O)C[C@@H](C)C(=O)[C@H](C)[C@@H](O)[C@]1(C)O [Erythromycin] | – | Yes | QT ([2]; Table 3): Yes |
| NC(=O)OCC(COC(N)=O)c1ccccc1 [Felbamate] | Yes | Yes? | QT ([2]; Table 3): Yes; Interactions: cytochrome P-450 isoform 2C19, substrate or inhibitor (CYP2C19): Inhibitor; TdP ([1]; Table 3): Yes |
| O=C(NCC1CCCCN1)c1cc(OCC(F)(F)F)ccc1OCC(F)(F)F (centres unmarked) [Flecainide] | – | Yes | Interactions: cytochrome P-450 isoform 2D6, substrate or inhibitor (CYP2D6): Substrate; QT ([2]; Table 3): Yes |
| OC(Cn1cncn1)(Cn1cncn1)c1ccc(F)cc1F [Fluconazole] | – | – | Interactions: cytochrome P-450 isoform 2C9, substrate or inhibitor (CYP2C9): Inhibitor; Interactions: cytochrome P-450 isoform 3A, substrate or inhibitor (CYP3A): Inbibilor |
| C[C@]12CCC(=O)C=C1CC[C@H]1[C@@H]3CC[C@](O)(C(=O)CO)[C@@]3(C)C[C@H](O)[C@@]12F [Fludrocortisone] | – | Yes | – |
| CNCCC(Oc1ccc(C(F)(F)F)cc1)c1ccccc1 (centres unmarked) [Fluoxetine] | – | Yes | Interactions: cytochrome P-450 isoform 2C9, substrate or inhibitor (CYP2C9): Substrate; Interactions: cytochrome P-450 isoform 3A, substrate or inhibitor (CYP3A): Inhibitor; QT ([2]; Table 3): Yes; Interactions: cytochrome P-450 isoform 2C19, substrate or inhibitor (CYP2C19): Inhibitor |
| OCCN1CCN(CCCN2c3ccccc3Sc3ccc(C(F)(F)F)cc32)CC1 [Fluphenazine] | Yes | Yes | QT ([2]; Table 3): Yes; TdP ([1]; Table 3): Yes |
| O=C(O)P(=O)(O)O [Foscarnet] | – | Yes | – |
| O=C1NC(c2ccccc2)(c2ccccc2)C(=O)N1COP(=O)(O)O [Fosphenytoin] | – | Yes | – |
| CCCCN(CCCC)CCC(O)c1cc2c(Cl)cc(Cl)cc2c2cc(C(F)(F)F)ccc12 (centres unmarked) [Halofantrine] | – | Yes | Interactions: cytochrome P-450 isoform 2D6, substrate or inhibitor (CYP2D6): Inhibitor; QT ([2]; Table 3): Yes |
| CCCCCCCN(CC)CCCC(O)c1ccc(NS(C)(=O)=O)cc1 (centres unmarked) [Ibutilide] | Yes | Yes | Duration of QTc prolonging effect (healthy volunteers; 0.003 mg/kg intravenous single dose): almost dissipated by the end of two hours; Mean QTc prolongation over time (AUC, 60 minutes after infusion) (healthy volunteers; men versus women by menstrual phase, p<0.05): significantly smaller in men than in women; also recorded: significantly lower for women during the luteal phase and for men; Maximal change in QTc interval after infusion (healthy volunteers; men, 0.003 mg/kg intravenous single dose): 54 ± 28 ms; Maximal change in QTc interval after infusion (healthy volunteers; women, luteal phase, 0.003 mg/kg intravenous single dose): 53 ± 14 ms; Maximal change in QTc interval after infusion (healthy volunteers; women, menstrual phase, 0.003 mg/kg intravenous single dose): 63 ± 13 ms; Maximal change in QTc interval after infusion (healthy volunteers; women, ovulation phase, 0.003 mg/kg intravenous single dose): 59 ± 17 ms |
| CN(C)CCCN1c2ccccc2CCc2ccccc21 [Imipramine] | – | Yes | QT ([2]; Table 3): Yes |
| CC1Cc2ccccc2N1NC(=O)c1ccc(Cl)c(S(N)(=O)=O)c1 (centres unmarked) [Indapamide] | Maybe— | Yes | – |
| COC(=O)C1=C(C)NC(C)=C(C(=O)OC(C)C)C1c1cccc2nonc12 (centres unmarked) [Isradipine] | – | Yes | – |

| SMILES | TdP [1, 3] | QT ([2]; Table 2, drug labeling) | further results |
| --- | --- | --- | --- |
| CCC(C)n1ncn(-c2ccc(N3CCN(c4ccc(OCC5COC(Cn6cncn6)(c6ccc(Cl)cc6Cl)O5)cc4)CC3)cc2)c1=O (centres unmarked) [Itraconazole] | – | – | Interactions: cytochrome P-450 isoform 3A, substrate or inhibitor (CYP3A): Inhibitor |
| CC(=O)N1CCN(c2ccc(OCC3COC(Cn4ccnc4)(c4ccc(Cl)cc4Cl)O3)cc2)CC1 (centres unmarked) [Ketoconazole] | – | – | Interactions: cytochrome P-450 isoform 3A, substrate or inhibitor (CYP3A): Inhibitor; Interactions: cytochrome P-450 isoform 2C19, substrate or inhibitor (CYP2C19): Inhibitor |
| CNCCCC12CCC(c3ccccc31)c1ccccc12 [Maprotiline] | Yes | Yes | – |
| CCOC(=O)Nc1ccc2c(c1)N(C(=O)CCN1CCOCC1)c1ccccc1S2 [Moricizine] | Yes | – | – |
| CNS(=O)(=O)CCc1ccc2[nH]cc(C3CCN(C)CC3)c2c1 [Naratriptan] | – | Yes | – |
| COC(=O)C1=C(C)NC(C)=C(C(=O)OCCN(C)Cc2ccccc2)C1c1cccc([N+](=O)[O-])c1 (centres unmarked) [Nicardipine] | – | Yes | – |
| CNCCC=C1c2ccccc2CCc2ccccc21 [Nortriptyline] | – | Yes | – |
| N=C(N)c1ccc(OCCCCCOc2ccc(C(=N)N)cc2)cc1 [Pentamidine] | Yes | – | – |
| OCCN1CCN(CCCN2c3ccccc3Sc3ccc(Cl)cc32)CC1 [Perphenazine] | – | Yes | – |
| O=c1[nH]c2ccccc2n1C1CCN(CCCC(c2ccc(F)cc2)c2ccc(F)cc2)CC1 [Pimozide] | Yes | Yes | – |
| CCN(CC)CCNC(=O)c1ccc(N)cc1 [Procainamide] | – | Yes | – |
| CNCCCC1c2ccccc2C=Cc2ccccc21 [Protriptyline] | – | Yes | QT ([2]; Table 3): Yes |
| OCCOCCN1CCN(C2=Nc3ccccc3Sc3ccccc32)CC1 [Quetiapine] | – | Yes | – |
| C=C[C@H]1C[N@@]2CC[C@H]1C[C@@H]2[C@@H](O)c1ccnc2ccc(OC)cc12 [Quinidine] | Yes | Yes | Interactions: cytochrome P-450 isoform 3A, substrate or inhibitor (CYP3A): Substrate; QT ([2]; Table 3): Yes; TdP ([1]; Table 3): Yes |
| Cc1nc2n(c(=O)c1CCN1CCC(c3noc4cc(F)ccc34)CC1)CCCC2 [Risperidone] | Yes | Yes | QT ([2]; Table 3): Yes; TdP ([1]; Table 3): Yes |
| OCc1cc(C(O)CNCCCCCCOCCCCc2ccccc2)ccc1O (centres unmarked) [Salmeterol] | – | Yes | – |
| CC(C)NCC(O)c1ccc(NS(C)(=O)=O)cc1 (centres unmarked) [Sotalol] | – | Yes | – |
| C[C@@H]1CN(c2c(F)c(N)c3c(=O)c(C(=O)O)cn(C4CC4)c3c2F)C[C@H](C)N1 [Sparfloxacin] | Yes | Yes | – |
| CNS(=O)(=O)Cc1ccc2[nH]cc(CCN(C)C)c2c1 [Sumatriptan] | – | Yes | – |
| CN1CCN(CC/C=C2/c3ccccc3Sc3ccc(S(=O)(=O)N(C)C)cc32)CC1 [Thiothixene] | Yes | Yes | – |
| Clc1ccc2nsnc2c1NC1=NCCN1 [Tizanidine] | – | Yes | – |
| Cc1cccc(C)c1NC(=O)C(C)N (centres unmarked) [Tocainide] | – | Yes | – |
| CN1CCN(CCCN2c3ccccc3Sc3ccc(C(F)(F)F)cc32)CC1 [Trifluoperazine] | Yes | Yes | – |
| COc1ccc(C(CN(C)C)C2(O)CCCCC2)cc1 (centres unmarked) [Venlafaxine] | – | Yes | Interactions: cytochrome P-450 isoform 2D6, substrate or inhibitor (CYP2D6): Substrate; QT ([2]; Table 3): Yes |
| CN(C)CCc1c[nH]c2ccc(C[C@H]3COC(=O)N3)cc12 [Zolmitriptan] | – | Yes | – |
